Data taken from article PMC7822874, “Chemoprotective antimalarials identified through quantitative high-throughput screening of Plasmodium blood and liver stage parasites” (Scientific Reports, 2021).
Where “and” joins values, the source holds several entries; their conditions need not be identical. Equal values may be shown once. Read-outs that look alike come from different tables or passages of the source.

What was measured:
[1] = system: P. falciparum Dd2 Cytb G131S; assay: SYBR Green ABS proliferation assay, NCGC00374598 selected clone C11; type: cell-based, Plasmodium falciparum; settings: second value triple, c6, […]; for AC50: Plasmodium falciparum, DD2, cytochrome b mutant line, read-out: log AC50, mean (converted); for log AC50, mean: cytochrome b mutant line
Outline: (§1)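 Asexual blood-stage proliferation of cytochrome b-mutant Dd2 clones after 72 h compound exposure at 37 °C in low-oxygen gas, quantified as control-normalized SYBR Green-I fluorescence; differences tested by two-sided t-test.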

[2] = system: P. falciparum Dd2 Cytb V259L; assay: SYBR Green ABS proliferation assay, NCGC00473217 selected clone F06; type: cell-based, Plasmodium falciparum; set-up: log AC50, mean: unit: log M; settings: third value triple, c9, […]; for AC50: Plasmodium falciparum, DD2, cytochrome b mutant line, read-out: log AC50, mean (converted); for log AC50, mean: cytochrome b mutant line
Outline: as §1

[3] = system: P. falciparum Dd2 Cytb A122D; assay: SYBR Green ABS proliferation assay, NCGC00473217 selected clone F12; type: cell-based, Plasmodium falciparum; set-up: log AC50, mean: unit: Log[M]; settings: fourth value triple, c12, […]; for AC50: Plasmodium falciparum, DD2, cytochrome b mutant line, read-out: log AC50, mean (converted); for log AC50, mean: cytochrome b mutant line
Outline: as §1

[4] = system: P. falciparum Dd2 Cytb F123L; assay: SYBR Green ABS proliferation assay, NCGC00473217 selected clone G08; type: cell-based, Plasmodium falciparum; set-up: log AC50, mean: unit: log10(M); settings: fifth value triple, c15, […]; for AC50: Plasmodium falciparum, DD2, cytochrome b mutant line, read-out: log AC50, mean (converted); for log AC50, mean: cytochrome b mutant line
Procedure: As resistance selection studies implicated the parasite cytochrome bc1 complex in mediating reduced parasite susceptibility to both NCGC00473217 and NCGC00374598, we leveraged these drug-selected parasites to test for altered drug response to a panel of antimalarial compounds.
The P. falciparum parasite Dd2 line was cultured in vitro using standard conditions. […] Tissue culture flasks and assay plates were incubated at 37 °C under a gas mixture of 5% CO2, 5% O2 and 90% N2. […] Significant differences were assessed using two-sided Student’s t-tests. All HTS assays were stopped and read at 72 h. Percent response values represent relative growth as judged by SYBR Green-I fluorescence intensity values normalized to controls.
Fresh uninfected RBCs (0.5% hematocrit) were added on day 7 and media was changed every other day. […] Resistant parasites were maintained under drug media at a volume of 50 mL until a high parasitemia (> 5%) was achieved. Aliquots of the bulk resistant cultures were frozen in cryovials before cloning by limiting dilution in 96-well plates (seeded at 0.25 or 0.5 parasites/well)[70]. After 3 weeks of cloning, we screened for positive wells by flow cytometry with SYBR Green-stained cells. […] Parasites were harvested by saponin lysis at the trophozoite stage and genomic DNA was extracted using the QIAamp DNA Blood Midi Kit (Qiagen, Germantown, MD)[71].

[5] = system: Plasmodium falciparum Dd2 asexual blood stage parasites; assay: microbe, parasite or virus in culture; set-up: species or system Plasmodium falciparum Dd2 in human erythrocytes; single determination (one 11-point concentration-response curve); settings: Plasmodium falciparum, DD2, Erythrocyte, 72 h; read-out: AC50
[6] = system: T1, Plasmodium falciparum Dd2-attB (parental line), asexual blood stages; assay: microbe, parasite or virus in culture; set-up: replicate k of 3 (each line is one of three independent assays; the three lines of one compound and parasite line follow each other); settings: n = 1; for Individual replicates / Log AC50 (M): 72 h
T1 construct: Dd2-attB, the isogenic parental line
Outline: (§2)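 Statistics: two-sided Student's t-test between parental and transgenic values, from three independent assays. The transgene encodes a fumarate-dependent DHODH from yeast, independent of the parasite mETC.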

[7] = system: T2, Plasmodium falciparum Dd2-attB-ScDHODH (transgenic line expressing yeast DHODH), asexual blood stages; assay: organism not typed; set-up: replicate k of 3 (each line is one of three independent assays; the three lines of one compound and parasite line follow each other); settings: 72 h, n = 1
T2 construct: Dd2-attB-ScDHODH, the transgenic line that expresses yeast DHODH
Outline: as §2

[8] = system: luciferase-expressing P. berghei liver stage parasites in HepG2 cells; assay: Inhibition of liver-stage development assay (ILSDA), Method 2 (WRAIR, 96-well); type: cell-based, Plasmodium berghei; settings: Method 2, dose response; for Activity direction (Decrease / Inactive): P. berghei liver stage; for AC50: Plasmodium berghei, HepG2, P. berghei liver stage

Row | Compound | AC50 [1] [µM] | AC50 [2] [µM] | AC50 [3] [µM] | AC50 [4] [µM] | AC50 [5] [µM] | also measured
1 | COc1ccc(-c2nc(C3CC3)nc3c2CCN(Cc2cccnc2)CC3)cc1 [NCGC00476959-01] | 13.3 | 18.1 | 19.5 | 13.8 | 13.3 | –
2 | O=c1[nH]c(N2CCOCC2)nc2c1CCN(Cc1ccccc1Br)CC2 [NCGC00440625-01] | 6.43 | 9.44 | 6.93 | 1.19 | 15 | –
3 | CCc1nc2c(c(-c3ccc(O)cc3)n1)CCN(Cc1ccc(OC)cc1)CC2 [NCGC00480297-01] | 5.11 | 5.11 | 6.18 | 5.31 | 6.68 | –
4 | CN(C)c1nc2c(c(=O)[nH]1)CCN(Cc1ccc(F)cc1Cl)CC2 [NCGC00440505-01] | 6.18 | 10.2 | 5.51 | 1.74 | 10.6 | –
5 | CN(C)c1nc2c(c(=O)[nH]1)CCN(Cc1ccc(Br)cc1)CC2 [NCGC00440593-01] | 5.51 | 9.79 | 4.55 | 1.33 | 13.3 | –
6 | O=C(O)C(F)(F)F.Oc1ccc(-c2nc(C3CC3)nc3c2CCN(CC2CCCCC2)CC3)cc1 [NCGC00480361-02] | – | – | – | – | – | log AC50, mean [1]: -5.282; log AC50, mean [2]: -5.515; log AC50, mean [3]: -5.499; log AC50, mean [4]: -6.465; Individual replicates / Log AC50 (M) [6]: -5.2486 Log AC50 (M); Individual replicates / Log AC50 (M) [7]: -5.0486 Log AC50 (M) and -5.1986 Log AC50 (M)
7 | CC(C)c1nc2c(c(-c3ccc(O)cc3)n1)CCN(Cc1ccc(C(F)(F)F)cc1)CC2 [NCGC00480320-01] | 3.76 | 4.73 | 4.91 | 4.55 | 5.31 | –
8 | CCCN1C(c2ccccc2)=NS(=O)(=O)c2cc(NC(=O)c3ccc(F)cc3)ccc21 [NCGC00532331-01] | 0.71 | 2.33 | 1.85 | 3.3 | – | Activity direction (Decrease / Inactive) [8]: Decrease; AC50 ([8]; read-out: AC50): 17.8 µM; AC50 ([8]; read-out: Log AC50 (converted)): 17.8 µM
9 | O=c1[nH]c(N2CCOCC2)nc2c1CCN(Cc1ccccc1C(F)(F)F)CC2 [NCGC00440637-01] | 3.61 | 8.09 | 2.66 | 0.618 | 4.73 | –
10 | CC(C)c1nc2c(c(-c3ccc(O)cc3)n1)CCN(Cc1cccc3ccccc13)CC2 [NCGC00480323-01] | 4.06 | 4.55 | 4.73 | 4.22 | – | Activity direction (Decrease / Inactive) [8]: Inactive
11 | Oc1ccc(-c2nc(C3CC3)nc3c2CCN(Cc2ccc(F)cc2)CC3)cc1 [NCGC00480352-01] | 7.78 | 7.5 | – | 6.93 | – | log AC50, mean [3]: -4.975; Individual replicates / Log AC50 (M) [6]: -5.2986 Log AC50 (M) and -5.2486 Log AC50 (M); AC50 ([6]; Plasmodium falciparum, DD2, 72 h, read-out: Individual replicates / Log AC50 (converted)): 5.64 µM; Individual replicates / Log AC50 (M) [7]: -5.1486 Log AC50 (M) (2×) and -5.1986 Log AC50 (M)
12 | O=c1[nH]c(N2CCOCC2)nc2c1CCN(Cc1cc(Br)ccc1F)CC2 [NCGC00440663-01] | 6.68 | 23.7 | 4.91 | 3.61 | 5.31 | –
13 | O=C(O)C(F)(F)F.Oc1ccc(-c2nc(C3CC3)nc3c2CCN(Cc2ccc(F)cc2)CC3)cc1 [NCGC00480352-02] | – | – | – | – | – | log AC50, mean [1]: -5.315; log AC50, mean [2]: -5.399; log AC50, mean [3]: -5.349; log AC50, mean [4]: -5.432; Individual replicates / Log AC50 (M) [6]: -4.9986 Log AC50 (M) and -5.0986 Log AC50 (M) (2×); Individual replicates / Log AC50 (M) [7]: -5.0486 Log AC50 (M) (2×) and -4.8486 Log AC50 (M)
14 | CCCN1C(c2ccccc2)=NS(=O)(=O)c2cc(NC(=O)c3cccs3)ccc21 [NCGC00532332-01] | 0.861 | 4.32 | 1.53 | 2 | – | Activity direction (Decrease / Inactive) [8]: Decrease; AC50 ([8]; read-out: AC50): 0.035 µM; AC50 ([8]; read-out: Log AC50 (converted)): 0.0355 µM
15 | CC(C)c1nc2c(c(-c3ccc(O)cc3)n1)CCN(CC1CCCCC1)CC2 [NCGC00480317-01] | 5.73 | 5.73 | 8.41 | 5.11 | 4.73 | –
16 | c1ccc(OCCNc2nc(-c3cccnc3)nc3c2CCNCC3)cc1 [NCGC00443183-01] | 6.93 | 5.73 | 7.21 | 5.11 | – | Activity direction (Decrease / Inactive) [8]: Inactive
17 | CCc1nc2c(c(-c3ccc(O)cc3)n1)CCN(Cc1ccccc1C(F)(F)F)CC2 [NCGC00480300-01] | 3.9 | 4.73 | 4.22 | 4.06 | 2.99 | –
18 | CC(C)c1nc2c(c(-c3ccc(O)cc3)n1)CCN(Cc1ccccc1C(F)(F)F)CC2 [NCGC00480324-01] | 4.06 | 4.73 | 4.55 | 4.22 | 4.73 | –
19 | CC(C)c1nc2c(c(-c3ccc(O)cc3)n1)CCN(Cc1ccc(OC(F)(F)F)cc1)CC2 [NCGC00480325-01] | 5.31 | 8.73 | 6.43 | 6.68 | 2.99 | –
20 | Cc1ccc(CN2CCc3nc(C4CC4)nc(-c4ccc(O)cc4)c3CC2)cc1 [NCGC00480348-01] | 7.21 | 6.93 | 7.78 | 6.68 | 4.73 | –
21 | CN(C)c1nc2c(c(=O)[nH]1)CCN(Cc1ccccc1Br)CC2 [NCGC00440591-01] | 6.93 | 13.3 | 5.73 | 1.44 | 9.44 | –
22 | CCCN1C(CC2CCOCC2)=N[S+](=O)([O-])c2cc(NC(=O)c3cccs3)ccc21 [NCGC00537663-01] | 3.7 | 4.66 | 2.82 | 3.56 | – | –
23 | CCCN1C(CC(C)C)=N[S+](=O)([O-])c2cc(NC(=O)c3ccc4c(c3)OCCO4)ccc21 [NCGC00531778-01] | 0.224 | 5.22 | 13.1 | 13.1 | – | –
24 | O=C(c1ccc(C(F)(F)F)cc1)N1CCc2nc(C3CC3)nc(-c3ccc(Cl)cc3)c2CC1 [NCGC00476963-01] | 12.8 | 15.8 | 15 | 8.41 | 13.3 | –
25 | COc1cc(OC)c(OC)cc1CN1CCc2nc(N(C)C)[nH]c(=O)c2CC1 [NCGC00440589-01] | 2.66 | 2.76 | 1.61 | 2.03 | – | –
26 | CCCN1C(CC(C)C)=N[S+](=O)([O-])c2cc(NCc3ccc(F)cc3)ccc21 [NCGC00531784-01] | 4.15 | 11.9 | 14.2 | 12.6 | – | –
27 | COc1ccc(-c2nc(C(C)C)nc3c2CCN(C(=O)Nc2ccccc2)CC3)cc1 [NCGC00479509-01] | 11.9 | 16.1 | 14.4 | 12.3 | – | –
28 | CCCN1C(CC(C)C)=N[S+](=O)([O-])c2cc(NC(=O)c3c(Cl)cccc3Cl)ccc21 [NCGC00531779-01] | 1.85 | 11.9 | 15.9 | 15.3 | – | –
29 | CCCN1C(CC(F)(F)F)=N[S+](=O)([O-])c2cc(NC(=O)c3cccs3)ccc21 [NCGC00532340-01] | 6.32 | 2 | 7.1 | 7.1 | – | –
